Reference: patent US20210381022A1, “INTEGRATED DRUG DISCOVERY PLATFORM FOR INBORN ERROR OF METABOLISM DISORDERS” (RAMOT AT TEL-AVIV UNIVERSITY LTD., priority 2018, published 2021)

Legend:
adenine fibrils = details: previously demonstrated, reference [4]; cited from earlier work
wild-type strain = assay: Yeast growth assay of wild-type strain; assay type: cell-based, Saccharomyces cerevisiae; details: 13 mg/L cysteine, 80 mg/L homocysteine, 0.3 mM TA
Experimental: (§1) Strains were grown over night at 30° C. in SD medium without adenine. For spotting assays, strains were diluted to 6.25*10^7 cells/mL and were then 5-fold serially diluted and spotted on SD media with the indicated concentrations of adenine or TA (Sigma-Aldrich). Plates were incubated at 30° C. for 2 days. […] For OD600 measurements, strains were diluted to OD600 0.01, 200 μL of cells were platted on 96 wells plates and incubated at 30° C. for 25 hours with continuous shaking. OD600 was measured using Tecan™ SPARK 10M plate reader.

cys4Δ strain = assay: Yeast growth assay of cys4Δ mutant with homocysteine; assay type: cell-based, Saccharomyces cerevisiae; details: 13 mg/L cysteine, 80 mg/L homocysteine, 0.3 mM TA
Experimental: FIG. 27E: WT and cys4Δ strains diluted to OD600 0.01 were grown in SD media containing 13 mg/L cysteine and 80 mg/L homocysteine in the under the indicated conditions. 0.3 mM TA was added to the samples at different OD600. The percentage of growth represents the growth the indicated condition compared to the growth of WT without TA. *P<0.05 (Student's t-test).
Homocystinuria results from cystathionine beta synthase (CBS) deficiency, leading to excess of Hcy. A knockout mutation in CYS4, the highly-conserved functional yeast ortholog of the human cystathionine beta synthase (CBS) known to be essential for Hcy salvage, was therefore generated. Due to the contribution of this enzyme to cysteine biosynthesis, it was first shown that its absence confers cysteine dependence (FIG. 27A). […] To examine whether the observed toxicity was associated with the in vivo formation of amyloid-like assemblies, the cells were stained with the amyloid-specific fluorescent dye ProteoStat which allows to detect intracellular amyloid fibrils. […] Next, to further establish the amyloid-like nature of the aggregates, the fibrillation-modifying polyphenolic compound tannic acid (TA) was used (FIG. 27E).

aah1Δapt1Δ cells [1] = assay: LC-MS detection of TA and adenine inside cells; assay type: cell-based, Saccharomyces cerevisiae; details: cells grown in SD medium containing adenine and TA
Experimental: 100 ml of cells at the logarithmic phase were centrifuged and washed three times with PBS. 1 ml of the growth medium and of each wash were collected for LC-MS analysis. After the third wash, the pellet was resuspended in PBS together with acid-washed glass beads. Tubes were vortexed for 45 minutes in 4° C. using disruptor-genie. Cell debris and soluble material were separated by centrifugation. Both fractions as well as the medium and washes were analyzed by MS. The pellet was resuspended in 200 μl DMSO, heated for 5 minutes at 85° C. and sonicated for 5 minutes at 40° C. The lysis mixture was centrifuged at 6000 rpm for 10 minutes. 150 μl of the lysate were transferred to a Waters 96 well ACQUITY collection plate for LC-MS analysis. 20 μl of each sample were injected to Waters Autopurification system analytical module equipped with SQD2 MS detector at the following conditions: a. LC: Waters XSelect Peptide CSH C18 column (5 μm, 4.6 mm×100 mm) using a 10 minute gradient from 95:5 Water:acetonitrile (both with 0.1% formic acid) to acetonitrile (0.1% formic acid); b. MS: acquisition parameters were optimized in order to select the proper ion for selected ion monitoring (SIR) experiments.

[2] = tested on: adenine aggregation in aah1Δapt1Δ cells; assay: Flow cytometry with ProteoStat staining of salvage mutant; assay type: cell-based, Saccharomyces cerevisiae; details: adenine in media, TA 0.5 mM
Experimental: An amount of 1 mL of logarithmic cells were washed with PBS buffer and sonicated using 15 s pulses at 20% power. For each sample, 2*10^6 cells were resuspended with ProteoStat dye (Enzo Life Sciences) diluted 1:3000 in ProteoStat assay buffer. Cells were incubated for 15 min at room temperature protected from light. Flow cytometry was preformed using Stratedigm S1000EXi and the CellCapTure software (Stratedigm, San Jose, Calif.). Live cells were gated (P1) by forward scatter and side scatter. Fluorescence channels for FITC (530/30) and PE-Cy5 (676/29) were used utilizing a 488 nm laser source. A total of 50,000 events were acquired for each sample. Analyses were performed using FlowJo software (TreeStar, version 10).

aah1Δapt1Δ strain = assay: Yeast growth assay of adenine salvage mutant with adenine feeding; assay type: cell-based, Saccharomyces cerevisiae
Experimental: as §1
For the percentage of growth analysis (FIG. 10B and FIG. 13A), OD600 was measured when cells reached log phase. The percentage of growth represents the growth with TA compared to the growth without TA.

phenylalanine assemblies = details: reference [4]; cited from earlier work
aah1Δapt1Δ cells [3] = assay: Confocal microscopy with ProteoStat staining of salvage mutant; assay type: cell-based, Saccharomyces cerevisiae; details: adenine in media, TA 0.5 mM
Experimental: An amount of 1 mL of logarithmic cells were washed with PBS buffer, sonicated using 15 s pulses at 20% power and resuspended in 50 μL of ProtesoStat dye diluted 1:250 in ProteoStat assay buffer. Cells were incubated for 15 min at room temperature protected from light. 10 μL of each sample was deposited on poly-lysine coated glass slides (Sigma-Aldrich). Cells were imaged using Leica TCS SP8 laser confocal microscope with 63×1.4 NA or 100*1.4 NA oil objectives. To visualize the nuclei, Hoechst (33342; ImmunoChimestry) was used. An argon laser with 488 excitation line was used for ProteoStat (emission wavelength, 500 to 600 nm), and a 405 UV laser was used to excite Hoechst fluorescence (emission wavelength, 415 to 450 nm).

healthy LCLs = assay: LCLs survival assay (XTT), healthy LCLs; assay type: cell-based, human; details: adenosine 300 μg/ml
Experimental: (§2) 24 hours after seeding in 96 round bottom plates in full medium cells were washed once with medium without serum and placed in medium without serum. Following 72 hours of incubation with or without Adenosine (200 ug/ml) and with or without purpurin (2 uM), XTT based cell viability assay was performed. Absorbance was measured with Tecan™ SPARK 10M plate reader.
(§3) In order to assess the toxic effect of adenosine aggregates, XTT based cell viability assays were performed on healthy and ADA deficient LCLs. Cells went through similar procedure as described above except adenosine was at 300 μg/ml. Survival percentage was calculated as absorbance with adenosine divided by absorbance without adenosine. […] Moreover. 4 out of 5 ADA deficient cell lines display less than 20% survival (FIG. 15B cell lines 7,8,9,11,12).

ADA deficient LCLs = assay: LCLs survival assay (XTT), ADA deficient LCLs; assay type: cell-based, human; details: adenosine 300 μg/ml, XTT
Experimental: as §2, §3

[4] = tested on: adenosine aggregates in ADA deficient LCLs; assay: Aggregation assay (Proteostat, FACS) on ADA deficient LCLs; assay type: cell-based, human; details: adenosine 200 μg/ml, 72 hours
Experimental: 24 hours after seeding in full medium cells were washed with medium without serum and placed in medium without serum. Following 72 hours of incubation with or without Adenosine (A9251 SIGMA) (200 ug/ml), cells were washed with PBS and stained for adenosine aggregates with Proteostat dye (ENZ-51023-KP002). Proteostat concentration was 1:3000 of diluted stock. Following 15 minutes' incubation, cells were washed with PBS and mean fluorescence was measured with FACS.
Cells were treated with adenosine alone or with adenosine with compounds. Compound activity was tested in 19 concentrations in range from 50 uM to 0.003 uM.
Readouts: Proteostat Fluorescence intensity was measured with FACS at 2 excitation wavelengths: 488 nm and 550 nm. Emission wavelength was 600 nm.
24 hours after seeding in 96 round bottom plates in full medium cells were washed once with medium without serum and placed in medium without serum. Following 72 hours of incubation with or without Adenosine (200 ug/ml) and with or without purpurin (2 uM), cells were washed once with PBS and stained for adenosine aggregates with Proteostat dye (Enzo Life Sciences). Proteostat concentration was 1:4000 of diluted stock. Following 15 minutes incubation, cells were washed with PBS and mean flow cytometry was preformed using Stratedigm S1000EXi and the CellCapTure software (Stratedigm, San Jose, Calif.). Analyses were performed using FlowJo software (TreeStar, version 10).
For quantification of intracellular adenosine aggregates by FACS analyses, 100,000 cells were seeded in 96 well plates in full medium. After 24 hours, cells were centrifuged, washed once and added with serum free medium with or without Adenosine (200 μg/ml). After incubation of 72 hours cells were washed with PBS and stained for adenosine aggregates with Proteostat dye. Following 15 minutes incubation, cells were washed with PBS and mean fluorescence was measured with FACS. Mean cell fluorescence of every cell line was normalized to its signal without adenosine and data is presented as percentage of aggregates.

O=C(OC[C@H]1O[C@@H](OC(=O)c2cc(O)c(O)c(OC(=O)c3cc(O)c(O)c(O)c3)c2)[C@H](OC(=O)c2cc(O)c(O)c(OC(=O)c3cc(O)c(O)c(O)c3)c2)[C@@H](OC(=O)c2cc(O)c(O)c(OC(=O)c3cc(O)c(O)c(O)c3)c2)[C@@H]1OC(=O)c1cc(O)c(O)c(OC(=O)c2cc(O)c(O)c(O)c2)c1)c1cc(O)c(O)c(OC(=O)c2cc(O)c(O)c(O)c2)c1 [TA, Tannic acid]
adenine self-assembly in vitro (adenine fibrils): inhibition of adenine self-assembly in vitro | growth of wild-type strain (wild-type strain): no effect was observed | growth inhibition of the salvage mutant strain in the presence of Hcy (cys4Δ strain): significantly ameliorated the growth inhibition | presence inside the cell (LC-MS) (aah1Δapt1Δ cells [1]): detected inside the cell | metabolite aggregation (ProteoStat, flow cytometry) [2]: decrease in metabolite aggregation | formation of adenine amyloid-like assemblies / growth, inhibitor added at earlier time points (aah1Δapt1Δ strain; 0.5 mM TA added at earlier time points of yeast growth): hinder the formation of adenine amyloid-like assemblies | growth, inhibitor added at later stages (aah1Δapt1Δ strain; 0.5 mM TA added at later stages of yeast growth): no effect on their growth | cell growth of the salvage mutant (aah1Δapt1Δ strain; in the presence of adenine, TA added to the yeast media at various concentrations): clearly improved cell growth of the salvage mutant in a dose-dependent manner | phenylalanine aggregation and cytotoxicity of the assemblies in vitro (phenylalanine assemblies): counteract | ProteoStat stained dots (confocal microscopy) (aah1Δapt1Δ cells [3]): absence of the stained dots

Nc1ncnc2c1ncn2[C@@H]1O[C@H](CO)[C@@H](O)[C@H]1O [adenosine, Adenosine]
survival of healthy LCLs in the presence of adenosine (healthy LCLs): above 70% | survival of ADA deficient LCLs in the presence of adenosine (ADA deficient LCLs): below 40% | survival, 4 out of 5 ADA deficient cell lines (ADA deficient LCLs): less than 20% | Proteostat staining of ADA deficient LCLs compared to healthy LCLs [4]: 2-3 fold
